US20260217701A1, “SELECTIVE BET INHIBITORS AND USES THEREOF” (Tay Therapeutics Limited, priority 2022, published 2026)

What was measured:
[1] = system: collagen-induced arthritis; test: CIA model: histopathologic analysis of hind limbs; assay type: in vivo, Lewis rats; conditions: for Erosion/Ulcer, cartilaginous, Marked (number of animals) / Erosion/Ulcer, cartilaginous, Mild (number of animals) / Erosion/Ulcer, cartilaginous, Minimal (number of animals) / Erosion/Ulcer, cartilaginous, Moderate (number of animals) / Granulation tissue, Marked (number of animals) / Granulation tissue, Mild (number of animals) / Granulation tissue, Minimal (number of animals) / Granulation tissue, Moderate (number of animals) / Increased bone, periosteum, Marked (number of animals) / Increased bone, periosteum, Mild (number of animals) / Increased bone, periosteum, Minimal (number of animals) / Increased bone, periosteum, Moderate (number of animals) / Increased eroded surface, bone, Marked (number of animals) / Increased eroded surface, bone, Mild (number of animals) / Increased eroded surface, bone, Minimal (number of animals) / Increased eroded surface, bone, Moderate (number of animals) / Mixed cell inflammation, Marked (number of animals) / Mixed cell inflammation, Mild (number of animals) / Mixed cell inflammation, Minimal (number of animals) / Mixed cell inflammation, Moderate (number of animals) / No Visible Lesions (number of animals): hind limbs, CIA induced, 8 animals examined, comparator, dose not given; for Pathologic observations after microscopic evaluation: Group 3 (CIA + Dexamethasone)
Source text: Mean histopathologic scores for tissue samples from animals in Groups 1-6 are depicted in FIG. 22A, and day 21 histology scores for all animals are illustrated in FIG. 22B.

[2] = system: collagen-induced arthritis; conditions: for animals with weight gain at end of study / diarrhea over the 21-day period / increase in body weight, day 21 vs day 0: rat, in vivo; for increase in body weight, day 21 vs day 0: po; for control of hind paw volume: reference treatments vs CIA+vehicle (group 2)
Method: (§1) The emulsion was cooled in an ice water bath during the formulation. The final concentration of collagen was 1 mg/mL. The emulsion is prepared fresh immediately prior to injection.
as §1
Experimental groups for the study are outlined in Table 5A. […] Animals in group one received no immunization.
IHC markers for staining were selected after evaluating clinical and histopathological scores for animals. After the skin was removed, the right hind limb was snap frozen in liquid nitrogen and RNA and protein analysis was performed.
Blood samples were collected from animals in groups 1-7 via cardiac puncture following euthanasia on Day 21. […] Serum was divided into two separate tubes and stored at −75±15° C. One tube was used to analyze IgG1, and the other tube was reserved for additional analyses.
H&E-stained slides of designated tissues from animals were transferred to an independent pathologist for microscopic evaluation (SPFBio). Samples were assigned the histologic grades based on the severity of change from tissue where CIA was not induced. Histology grades assigned were as follows: grade 1 (minimal change), grade 2 (mild change), grade 3 (moderate change), grade 4 (marked change), and grade 5 (severe change). A grade may be assigned for each indicator of disease severity: inflammation, mixed cell; granulation tissue; increased bone, periosteum; increased eroded surface, bone and erosion/ulcer, cartilaginous. […] Moderate inflammation was also associated with increased edema fluid, fibrin, and cellular debris. Marked mixed cell inflammation was characterized by dense, widespread accumulations of neutrophils and macrophages with lesser number of lymphocytes within one or more joint spaces, synovium and periarticular soft tissues. Marked inflammation was also associated with abundant edema fluid, fibrin, and cellular debris.
Marked granulation tissue (pannus) was associated with inflammation and was characterized by widespread fibrovascular connective tissue that expanded/replaced the periarticular soft tissues of one or more joints, extended into/expanded joint spaces, was contiguous with areas of erosion/ulcer in articular cartilage and/or increased eroded surface of bone, and variably extended along the diaphysis.
Marked increased periosteal bone (periosteal bone formation) was characterized by extensive areas of increased bone matrix and numerous prominent osteoblasts lining trabecular surfaces along the metaphysis and/or diaphysis of one or more bones.

SMILES	Erosion/Ulcer, cartilaginous, Marked (number of animals) [1]	Erosion/Ulcer, cartilaginous, Mild (number of animals) [1]	Erosion/Ulcer, cartilaginous, Minimal (number of animals) [1]	Erosion/Ulcer, cartilaginous, Moderate (number of animals) [1]	Granulation tissue, Marked (number of animals) [1]	Granulation tissue, Mild (number of animals) [1]	Granulation tissue, Minimal (number of animals) [1]	Granulation tissue, Moderate (number of animals) [1]	Increased bone, periosteum, Marked (number of animals) [1]	Increased bone, periosteum, Mild (number of animals) [1]	Increased bone, periosteum, Minimal (number of animals) [1]	Increased bone, periosteum, Moderate (number of animals) [1]	Increased eroded surface, bone, Marked (number of animals) [1]	Increased eroded surface, bone, Mild (number of animals) [1]	Increased eroded surface, bone, Minimal (number of animals) [1]	Increased eroded surface, bone, Moderate (number of animals) [1]	Mixed cell inflammation, Marked (number of animals) [1]	Mixed cell inflammation, Mild (number of animals) [1]	Mixed cell inflammation, Minimal (number of animals) [1]	Mixed cell inflammation, Moderate (number of animals) [1]	also measured
CNC(=O)c1cc(C(=O)NC2CC2)cn(Cc2ccccc2)c1=O [GSK620]	0	6	0	2	0	4	0	4	0	6	0	2	0	4	1	3	0	0	0	8	Erosion/ulcer in articular cartilage, grade ([1]; Group 4 (CIA + GSK620)): mild and mild to moderate; Granulation tissue (pannus), grade ([1]; Group 4 (CIA + GSK620)): mild and mild to moderate; Increased eroded surface of bone (bone resorption), grade ([1]; Group 4 (CIA + GSK620)): mild and minimal to moderate; Increased periosteal bone (periosteal bone formation), grade ([1]; Group 4 (CIA + GSK620)): mild and mild to moderate; Mixed cell inflammation, grade ([1]; Group 4 (CIA + GSK620)): moderate; No Visible Lesions (number of animals) [1]: 0; animals exhibiting disease ([2]; group 4, day 18): all animals; animals with weight gain at end of study [2]: 4/8; diarrhea over the 21-day period [2]: did not have diarrhea; increase in body weight, day 21 vs day 0 [2]: 0.8%; control of hind paw volume [2]: failed to prevent an increase in paw volume
C[C@@H]1C[C@H]2[C@@H]3CCC4=CC(=O)C=C[C@]4(C)[C@@]3(F)[C@@H](O)C[C@]2(C)[C@@]1(O)C(=O)CO [Dexamethasone, dexamethasone]	0	0	0	0	0	0	0	0	0	0	0	0	0	0	0	0	0	0	0	0	Pathologic observations after microscopic evaluation [1]: no histopathological observations noted; Pathologic observations after microscopic evaluation ([1]; listed as dexamethasone): No pathologic observations; No Visible Lesions (number of animals) [1]: 8; animals with weight gain at end of study [2]: 4/8; diarrhea over the 21-day period [2]: did not have diarrhea; increase in body weight, day 21 vs day 0 [2]: 1.3%; average overall clinical score at plateau ([2]; reference treatments (groups 3 and 4), around day 18): never exhibited any signs of disease; control of hind paw volume [2]: effective at controlling paw volume
